These molecules were tested on IL-17A gene expression (assay: Effect on IL-23-induced cytokine expression in mice). Settings: Mus musculus, 24 h; 10 mg/kg oral, 30 min before and 8 hr after IL-23; ear tissue; versus the negative control group; read-out: percent inhibition of IL-17A gene expression.
Format: in vivo, Balb/c mice
Protocol: Effect on IL-23-Induced Cytokine Expression in Mice
A mouse IL-23 solution (500 ng/10 μL, prepared by Takeda Pharmaceutical Company Limited) or PBS (10 μL, negative control group) was administered intradermally in the ear of Balb/c mice (Charles River Japan, male, 7 weeks old). Twenty-four hr after administration, the ear was resected under isoflurane anesthesia. The test compound was suspended in 0.5% methylcellulose and administered orally 30 min before and 8 hr after IL-23 administration.
RNA extraction from the ear tissue and quantitative PCR were performed as follows. Specifically, ear tissue 5 mm in diameter was punched from an area of the resected ear centering on the IL-23 injection site, and the tissue was immersed in RNAlater (QIAGEN) for at least 18 hr. The RNAlater-treated ear tissue was homogenized in 350 μL of RLT buffer (RNeasy mini kit, QIAGEN) and treated (55° C., 10 min) with Proteinase K (QIAGEN). Total RNA was then extracted according to the RNeasy mini kit protocol. The RNA thus obtained was then reverse transcribed into cDNA using the High-Capacity RNA-to-cDNA kit (Applied Biosystems), and the amount of each gene expressions was measured by real-time PCR (Viia7™, Applied Biosystems). The PCR buffer used was TaqMan Fast Advanced Master Mix (Applied Biosystems), and TaqMan Gene Expression Assays (Applied Biosystems) Mm00439618_m1 (IL-17A) and 4352341E (β-actin) were used for each gene detection. The IL-17A gene expression level was normalized to the β-actin gene expression level, and the percent inhibition of IL-17A gene expression with the test compound was then calculated.
The results (percent inhibition of IL-17A gene expression with oral administration of the test compound) measured by the above-mentioned method are shown in Table 9.

Structure (SMILES) | inhibition in vivo at 10 mg/kg
COc1ccc2c(n1)CCN(C(=O)[C@H]1C[C@@H]1CC(=O)O)[C@H]2C(=O)Nc1cc(F)c([Si](C)(C)C)c(F)c1 [Example 13, ((1R,2S)-2-(((5R)-5-((3,5-difluoro-4-(trimethylsilyl)phenyl)carbamoyl)-2-methoxy-7,8-dihydro-1,6-naphthyridin-6(5H)-yl)carbonyl)cyclopropyl)acetic acid] | 91%
CCOCC(C)(C)c1c(F)cc(NC(=O)[C@H]2c3ccc(OCC)cc3CCN2C(=O)[C@H]2C[C@@H](CC(=O)O)C2)cc1F [Example 18, (cis-3-(((1R)-6-ethoxy-1-((4-(1-ethoxy-2-methylpropan-2-yl)-3,5-difluorophenyl)carbamoyl)-3,4-dihydroisoquinolin-2(1H)-yl)carbonyl)cyclobutyl)acetic acid] | 72%
COCc1ccc2c(c1)CCN(C(=O)[C@H]1C[C@H](CC(=O)O)C1)[C@H]2C(=O)Nc1cc(F)c2c(c1)CCC2(C)C [Example 24, (trans-3-(((1R)-1-((7-fluoro-1,1-dimethyl-2,3-dihydro-1H-inden-5-yl)carbamoyl)-6-(methoxymethyl)-3,4-dihydroisoquinolin-2(1H)-yl)carbonyl)cyclobutyl)acetic acid] | 74%
COc1ccc2c(c1)CCN(C(=O)[C@H]1C[C@@H](CC(=O)O)C1)[C@H]2C(=O)Nc1cc(F)c([Si](C)(C)C)c(F)c1 [Example 25, (cis-3-(((1R)-1-((3,5-difluoro-4-(trimethylsilyl)phenyl)carbamoyl)-6-methoxy-3,4-dihydroisoquinolin-2(1H)-yl)carbonyl)cyclobutyl)acetic acid] | 92%
COc1ccc2c(n1)CCN(C(=O)[C@H]1C[C@H](CC(=O)O)C1)[C@H]2C(=O)Nc1cc(F)c([Si](C)(C)C)c(F)c1 [Example 28, (trans-3-(((5R)-5-((3,5-difluoro-4-(trimethylsilyl)phenyl)carbamoyl)-2-methoxy-7,8-dihydro-1,6-naphthyridin-6(5H)-yl)carbonyl)cyclobutyl)acetic acid] | 91%
COc1ccc2c(c1)CCN(C(=O)C1CC(CC(=O)O)C1)[C@H]2C(=O)Nc1cc(F)c([Si](C)(C)C)c(F)c1 (stereo partly drawn) [Example 4, (3-(((1R)-1-((3,5-difluoro-4-(trimethylsilyl)phenyl)carbamoyl)-6-methoxy-3,4-dihydroisoquinolin-2(1H)-yl)carbonyl)cyclobutyl)acetic acid] | 86%
COc1ccc2c(c1)CCN(C(=O)[C@H]1C[C@@H]1CC(=O)O)[C@H]2C(=O)Nc1cc(F)c([Si](C)(C)C)c(F)c1 [Example 29, ((1R,2S)-2-(((1R)-1-((3,5-difluoro-4-(trimethylsilyl)phenyl)carbamoyl)-6-methoxy-3,4-dihydroisoquinolin-2(1H)-yl)carbonyl)cyclopropyl)acetic acid] | 73%
CCOc1ccc2c(c1)CCN(C(=O)[C@H]1C[C@@H](C(=O)O)C1)[C@H]2C(=O)Nc1cc(F)c([Si](C)(C)C)c(F)c1 [Example 8, cis-3-(((1R)-1-((3,5-difluoro-4-(trimethylsilyl)phenyl)carbamoyl)-6-ethoxy-3,4-dihydroisoquinolin-2(1H)-yl)carbonyl)cyclobutanecarboxylic acid] | 72%
CCOc1ccc2c(c1)CCN(C(=O)[C@H]1C[C@H](C(=O)O)C1)[C@H]2C(=O)Nc1cc(F)c([Si](C)(C)C)c(F)c1 [Example 9, trans-3-(((1R)-1-((3,5-difluoro-4-(trimethylsilyl)phenyl)carbamoyl)-6-ethoxy-3,4-dihydroisoquinolin-2(1H)-yl)carbonyl)cyclobutanecarboxylic acid] | 57%
COc1ccc2c(c1)CCN(C(=O)[C@H]1C[C@@H](C(=O)O)C1)[C@H]2C(=O)Nc1ccc([Si](C)(C)C)c(F)c1 [Example 32, cis-3-(((1R)-1-((3-fluoro-4-(trimethylsilyl)phenyl)carbamoyl)-6-methoxy-3,4-dihydroisoquinolin-2(1H)-yl)carbonyl)cyclobutanecarboxylic acid] | 83%
COc1ccc2c(n1)CCN(C(=O)[C@H]1C[C@@H](C(=O)O)C1)[C@H]2C(=O)Nc1cc(F)c([Si](C)(C)C)c(F)c1 [Example 31, cis-3-(((5R)-5-((3,5-difluoro-4-(trimethylsilyl)phenyl)carbamoyl)-2-methoxy-7,8-dihydro-1,6-naphthyridin-6(5H)-yl)carbonyl)cyclobutanecarboxylic acid] | 85%
COc1ccc2c(n1)CCN(C(=O)[C@H]1C[C@@H]1CC(=O)O)[C@H]2C(=O)Nc1cc(F)c2c(c1)CCC2(C)C [Example 6, ((1R,2S)-2-(((5R)-5-((7-fluoro-1,1-dimethyl-2,3-dihydro-1H-inden-5-yl)carbamoyl)-2-methoxy-7,8-dihydro-1,6-naphthyridin-6(5H)-yl)carbonyl)cyclopropyl)acetic acid] | 95%
COc1ccc2c(c1)CCN(C(=O)[C@H]1C[C@@H](C(=O)O)C1)[C@H]2C(=O)Nc1cc(F)c([Si](C)(C)C)c(F)c1 [Example 5, cis-3-(((1R)-1-((3,5-difluoro-4-(trimethylsilyl)phenyl)carbamoyl)-6-methoxy-3,4-dihydroisoquinolin-2(1H)-yl)carbonyl)cyclobutanecarboxylic acid] | 57%
COc1ccc2c(n1)CCN(C(=O)[C@H]1C[C@@H](C(=O)OCc3ccccc3)C1)[C@H]2C(=O)Nc1cc(F)c2c(c1)CCC2(C)C [Example 36, benzyl cis-3-(((5R)-5-((7-fluoro-1,1-dimethyl-2,3-dihydro-1H-inden-5-yl)carbamoyl)-2-methoxy-7,8-dihydro-1,6-naphthyridin-6(5H)-yl)carbonyl)cyclobutanecarboxylate] | 78%
COc1ccc2c(n1)CCN(C(=O)[C@H]1C[C@@H](CC(=O)O)C1)[C@H]2C(=O)Nc1cc(F)c([Si](C)(C)C)c(F)c1 [Example 23, (cis-3-(((5R)-5-((3,5-difluoro-4-(trimethylsilyl)phenyl)carbamoyl)-2-methoxy-7,8-dihydro-1,6-naphthyridin-6(5H)-yl)carbonyl)cyclobutyl)acetic acid] | 96%
COc1ccc2c(n1)CCN(C(=O)[C@H]1C[C@H](CC(=O)O)C1)[C@H]2C(=O)Nc1cc(F)c2c(c1)CCC2(C)C [Example 20, (trans-3-(((5R)-5-((7-fluoro-1,1-dimethyl-2,3-dihydro-1H-inden-5-yl)carbamoyl)-2-methoxy-7,8-dihydro-1,6-naphthyridin-6(5H)-yl)carbonyl)cyclobutyl)acetic acid] | 99%
COCc1ccc2c(c1)CCN(C(=O)[C@H]1C[C@@H](CC(=O)O)C1)[C@H]2C(=O)Nc1cc(F)c2c(c1)CCC2(C)C [Example 19, (cis-3-(((1R)-1-((7-fluoro-1,1-dimethyl-2,3-dihydro-1H-inden-5-yl)carbamoyl)-6-(methoxymethyl)-3,4-dihydroisoquinolin-2(1H)-yl)carbonyl)cyclobutyl)acetic acid] | 90%
COc1ccc2c(c1)CCN(C(=O)[C@H]1C[C@@H](CC(=O)O)C1)[C@H]2C(=O)Nc1ccc([Si](C)(C)C)c(F)c1 [Example 33, (cis-3-(((1R)-1-((3-fluoro-4-(trimethylsilyl)phenyl)carbamoyl)-6-methoxy-3,4-dihydroisoquinolin-2(1H)-yl)carbonyl)cyclobutyl)acetic acid] | 94%
